# Measured values: the supplement of paper PMC10307832
# How the values were obtained:
# Experiment in all cases: relative viability (nuclei count vs DMSO), 5 days (fraction); higher = more cells survive
# MK-8033 + Trametinib = compound: Cn1cc(-c2cnc3ccc4ccc(CS(=O)(=O)NCc5ccccn5)cc4c(=O)c3c2)cn1 [MK-8033] + CC(=O)Nc1cccc(-n2c(=O)n(C3CC3)c(=O)c3c(Nc4ccc(I)cc4F)n(C)c(=O)c(C)c32)c1 [Trametinib] (partner 0.02 µM)
# Method in brief: (§1)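 For relative viability, nuclei counts in treated wells were divided by those in vehicle wells. Lung cancer cell lines had been pin-tool dosed in 1536-well plates the day after seeding and cultured for 5 days, then fixed and stained in one step (final 0.05% Triton X-100, 1% formaldehyde, 1 ug/ml Hoechst) and imaged at 4×. Doses were one drug alone or a fixed anchor-drug dose plus five library-drug doses (not always all listed) in √10 steps, and values are duplicate-plate medians.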
# Irinotecan + Pictilisib = compound: CCc1c2c(nc3ccc(OC(=O)N4CCC(N5CCCCC5)CC4)cc13)-c1cc3c(c(=O)n1C2)COC(=O)[C@]3(O)CC [Irinotecan] + CS(=O)(=O)N1CCN(Cc2cc3nc(-c4cccc5[nH]ncc45)nc(N4CCOCC4)c3s2)CC1 [Pictilisib] (partner 1 µM)
# Method in brief: as §1
# MK-8033 + Luminespib = compound: Cn1cc(-c2cnc3ccc4ccc(CS(=O)(=O)NCc5ccccn5)cc4c(=O)c3c2)cn1 [MK-8033] + CCNC(=O)c1noc(-c2cc(C(C)C)c(O)cc2O)c1-c1ccc(CN2CCOCC2)cc1 [Luminespib] (partner 0.01 µM)
# Method in brief: as §1
# Irinotecan + Luminespib = compound: CCc1c2c(nc3ccc(OC(=O)N4CCC(N5CCCCC5)CC4)cc13)-c1cc3c(c(=O)n1C2)COC(=O)[C@]3(O)CC [Irinotecan] + CCNC(=O)c1noc(-c2cc(C(C)C)c(O)cc2O)c1-c1ccc(CN2CCOCC2)cc1 [Luminespib] (partner 0.01 µM)
# Method in brief: as §1
cell line,measurement,setting,value
UMC-11,relative viability,MK-8033 + Trametinib; first compound 0.02 µM,0.714
same,relative viability,MK-8033 + Trametinib; first compound 0.06325 µM,0.457
same,relative viability,MK-8033 + Trametinib; first compound 0.2 µM,0.604
same,relative viability,MK-8033 + Trametinib; first compound 0.6325 µM,0.643
same,relative viability,MK-8033 + Trametinib; first compound 2 µM,0.642
same,relative viability,Irinotecan + Pictilisib; first compound 0.6325 µM,0.317
same,relative viability,Irinotecan + Pictilisib; first compound 2 µM,0.532
same,relative viability,Irinotecan + Pictilisib; first compound 6.325 µM,0.215
same,relative viability,Irinotecan + Pictilisib; first compound 20 µM,0.158
same,relative viability,MK-8033 + Luminespib; first compound 0.02 µM,1.03
same,relative viability,MK-8033 + Luminespib; first compound 0.06325 µM,0.935
same,relative viability,MK-8033 + Luminespib; first compound 0.2 µM,1.03
same,relative viability,MK-8033 + Luminespib; first compound 2 µM,0.988
same,relative viability,Irinotecan + Luminespib; first compound 0.6325 µM,0.569
same,relative viability,Irinotecan + Luminespib; first compound 2 µM,0.491
same,relative viability,Irinotecan + Luminespib; first compound 6.325 µM,0.383
same,relative viability,Irinotecan + Luminespib; first compound 20 µM,0.192
